Measured values from PubChem BioAssay (NCI).
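48-hour exposure; five concentrations; linearly interpolated endpoints. At the TGI there is no net growth.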

Assays:
Test in all cases: NCI tumour cell line growth inhibition, 48 h
[1] = test system: OVCAR-4 ovarian
[2] = test system: EKVX NSCLC
[3] = test system: LOX IMVI melanoma
[4] = test system: K-562 leukemia
[5] = test system: SW-620 colon
[6] = test system: RXF 393 renal
[7] = test system: COLO 205 colon
[8] = test system: NCI-H226 lung
[9] = test system: SF-295 CNS
[10] = test system: UO-31 renal
[11] = test system: NCI-H23 lung
[12] = test system: M14 melanoma

Compound	TGI [1] [µM]	TGI [2] [µM]	TGI [3] [µM]	TGI [4] [µM]	TGI [5] [µM]	TGI [6] [µM]	TGI [7] [µM]	TGI [8] [µM]	TGI [9] [µM]	TGI [10] [µM]	TGI [11] [µM]	TGI [12] [µM]
COc1ccc(N2C(=O)C3c4[nH]c5ccccc5c4C4C(C)CCCC4C3C2=O)cc1 (stereo not drawn)	> 100	> 100	> 100	> 100	> 100	> 72.6	> 100	> 100	> 100	> 100	> 100	> 100
CCNC(=S)N/N=C/c1ccccn1	4.98	> 100	> 100	> 100	> 100	> 100	> 100	22	> 100	23.6	84.8	32.7
CNc1ccc2c(c1)Cc1ccccc1-2	> 100	> 100	> 100	> 100	> 100	> 100	> 100	> 100	> 100	> 100	> 100	71.3
O=CN(O)CC(=O)O	> 100	> 100	> 100	> 100	> 100	> 100	> 100	> 100	> 100	> 100	> 100	> 100
CCOC(=O)Cc1nn2c(=O)cc(C)nc2s1	> 100	> 100	> 100	> 100	> 100	> 100	> 100	> 100	> 100	> 100	> 100	> 100
NC(CCSCC(F)F)C(=O)O (stereo not drawn)	> 100	> 100	> 100	> 100	> 100	> 100	> 100	> 100	> 100	> 100	> 100	> 100
C=C1CC2C(=O)N(c3ccccc3)C(=O)C2CC1n1[nH]c(=O)n(Cc2ccccc2)c1=O (stereo not drawn)	> 100	> 100	> 100	> 100	> 100	> 100	> 100	> 100	> 100	> 100	> 100	> 100
O=C(/C=C1\C[C@H]2C=Nc3ccccc3C(=O)N2C1)NCCCCCNC(=O)/C=C1\C[C@H]2C=Nc3ccccc3C(=O)N2C1	26.4	38.5	4.47	> 51.9	5.93	11.6	> 21	> 70.4	33	3.8	26.2	12.1
CC(O)(C(=O)N(O)c1ccc(Cl)cc1)c1ccc(Cl)cc1 (stereo not drawn)	> 100	> 100	> 100	43.1	> 100	95.2	33	> 100	92.4	42.4	59.7	> 100
Cc1cc2c(cc1Cl)SC(NNc1cnc3ccccc3n1)=NS2(=O)=O	> 100	> 100	> 100	> 100	> 100	> 100	> 100	> 100	> 100	> 100	> 100	> 100
COC(=O)C(CCSC)NC(=O)CSc1nnc(COc2ccc(Cl)cc2)n1-c1ccccc1 (stereo not drawn)	31.8	75.3	32.4	69.9	49.7	35.4	34.9	43.3	32.3	13.7	34.9	33.5
CCC1(CC)C(=O)NC(=S)N=C1N	> 100	> 100	> 100	> 100	> 100	> 100	> 100	> 100	> 100	> 100	> 100	> 100
OC(c1ccco1)C(F)(F)c1nc2ccccc2o1 (stereo not drawn)	> 100	> 100	> 100	> 100	> 100	> 100	> 100	> 100	> 100	> 100	> 100	> 100
CC1=CCC[C@H]2[C@](C)(CC3=CC(=O)C4SCCSC4C3=O)[C@@H](C)CC[C@]12C (stereo partly drawn)	> 100	54.4	24.3	96.2	65.6	44.8	35.9	30.3	32.8	40.1	31.9	29.8
CC1(C)[C@@H]2C[C@H]1c1cnc(-c3ccccn3)cc1[C@H]2C(O)[C@@H]1c2cc(-c3ccccn3)ncc2[C@H]2C[C@@H]1C2(C)C (stereo partly drawn)	> 9.95	13.3	4.52	> 52	47.1	1.62	4.06	0.502	11.4	0.445	2.79	1.85
CC1(C)OC(CCO)CN1C(=O)OCc1ccccc1 (stereo not drawn)	> 100	> 100	> 100	> 100	> 100	> 100	> 100	> 100	> 100	> 100	> 100	> 100
NS(=O)(=O)c1nnc(NSc2ccc([N+](=O)[O-])cc2)s1	> 100	> 100	> 100	> 100	> 100	> 100	> 100	> 100	> 100	> 100	> 100	> 100
O=C(c1ccccc1)[C@H]1Nc2cnccc2C2c3ccccc3CC21 (stereo partly drawn)	> 76.9	71	3.55	15.6	47.3	50.4	42.9	20.2	48.3	> 40.4	30.6	19.9
c1ccc(-c2ccc(N=NN3CCCC3)cc2)cc1	> 100	> 100	> 100	> 100	> 100	> 100	> 100	> 100	> 100	> 100	> 100	> 100
